The values below come from patent US20240327383A1 (priority 2021, published 2024).

“And” between values parts separate entries of the source, which are not always exact repeats. Equal entries are not always repeated.

Test [1] relates to SNI neuropathic pain. On the set-up: species or system rats. The conditions noted are these: rat, in vivo.
Test [2] concerns SNI neuropathic pain. On the set-up: species or system rats. To be noted: rat, in vivo. The source holds these as a separate data set.

In the case of `NCC1(CC(=O)O)CCCCC1` [Gabapentin], in the test with SNI neuropathic pain [1], the “mean relative analgesic rate of Von Frey Hairs” value was 29.71% and 36.26%. Moreover, the “mean relative analgesic rate of foot weight bearing” value with SNI neuropathic pain [2] is 20.85% and 17.55% and 14.07%.
